Read-outs that look alike come from different tables or passages of the source.
Legend:
[1] = tested on: Trypanosoma brucei brucei 427 cells; assay: T. brucei culture and assay (PrestoBlue); type: cell-based; details: for IC50: mean of 2(+) independent trials, read-out: IC50 T. brucei
[2] = tested on: rat skeletal muscle cell line, L6; assay: cells; type: cell-based
[3] = tested on: Leishmania amazonensis promastigotes expressing beta-lactamase; assay: microbe, parasite or virus in culture; type: cell-based; details: for IC50: Leishmania amazonensis
[4] = tested on: Trypanosoma cruzi Tulahuen cells expressing beta-galactosidase; assay: T. cruzi intracellular assay (beta-galactosidase, L6 host cells); details: for Selectivity L6/TC-I: Table 3A; for IC50: Trypanosoma cruzi, TULAHUEN
Description: Trypanosoma cruzi Tulahuen cells expressing beta-galactosidase (Buckner et al., Antimicrob. Agents Chemother. 40 (1996) 2592-2597) were cultured using the L6 cell line as a host cell. Adherent L6 cultures were infected with freshly burst T. cruzi trypomastigotes. Approximately 4-6 days later freshly burst trypomastigotes were collected and used to maintain cultures For assays, trypomastigotes were centrifuged to a loose pellet and incubated for 3 hours to allow the trypomastigote forms to swim out of the pellet. Cells were adjusted for addition to intracellular or extracellular assays. […] For intracellular assays, cells were added to adherent L6 cells using an infection ratio of 1:1 and immediately treated with compounds. At 96 hours incubations, a solution containing chlorophenol-red-B-D-beta-galactopyranosidase (Sigma) and a lysis agent were added. After an additional 2 hour incubation, a spectrophotometer was used to quantify the resulting color change (or lack thereof) which was used to calculate inhibition.
The percentage of cell inhibition was calculated using the formula: Percent Inhibition=1−((Treated Sample value−Medium only value)/(Untreated value−Medium only value))×100. Results are expressed as the mean of two or more independent trials.

[5] = Rattus norvegicus, Table 1, read-out: IC50 Toxicity (L6)
[6] = Rattus norvegicus, Table 3A, weighted means of two or more independent trials, read-out: IC50 L6
[7] = Table 2, L6 IC50 / L. amazonensis IC50
[8] = estimated from highest L6 dose tested where no L6 IC50
[9] = read-out: IC50 T. cruzi, Table 1, intracellular assay, mean of 2(+) trials (^c one trial)
[10] = read-out: IC50 T. cruzi, Table 2, intracellular assay, mean of 2(+) independent trials
[11] = read-out: IC50 TC-I, Table 3A, weighted means of two or more independent trials
[12] = Table 2, L6 mammalian cells, read-out: IC50 Toxicity (L6)
[13] = Table 1, intracellular T. cruzi IC50
[14] = Table 2, L6 IC50 / T. cruzi IC50 (intracellular assay)
[15] = read-out: IC50 L. amaz. (footnote c: value obtained from one trial)
[16] = Table 2, L6 IC50 / T. brucei IC50
[17] = Table 3A, estimated from highest L6 dose tested where no L6 IC50

CC(C)(C)c1ccc(/C=C2\Oc3ccccc3C2=O)cc1 [Aurone 3008, (Z)-2-(4-(tert-butyl)benzylidene)benzofuran-3(2H)-one]
IC50 ([1]; Table 2): > 50 µM | IC50 ([1]; Trypanosoma brucei, Table 1): > 50 µM | IC50 [2, 5]: 99.3 µM | IC50 [2, 6]: 99.3 µM | IC50 ([3]; read-out: IC50 L. amaz.): 3.57 µM | Selectivity L6/La ([3]; Table 1): 27.81 | Selectivity L6/La [3, 7]: 27.81 | Selectivity L6/TC-I [4, 8]: 7.94 | IC50 [4, 9]: > 50 µM | IC50 [4, 10]: > 50 µM | IC50 [4, 11]: 12.5 µM | melting point: 87 to 90 °C

CCCCc1ccc(/C=C2\Oc3ccccc3C2=O)cc1 [Aurone 3009, (Z)-2-(4-butylbenzylidene)benzofuran-3(2H)-one]
IC50 ([1]; Table 2): > 50 µM | IC50 ([1]; Trypanosoma brucei, Table 1): > 50 µM | IC50 [2, 5]: 35 µM | IC50 [2, 6]: 35 µM | IC50 ([3]; read-out: IC50 L. amaz.): 2.36 µM | Selectivity L6/La ([3]; Table 1): 14.84 | Selectivity L6/La [3, 7]: 14.84 | Selectivity L6/TC-I [4, 8]: 4.38 | IC50 [4, 9]: > 50 µM | IC50 [4, 10]: > 50 µM | IC50 [4, 11]: 7.99 µM | melting point: 80 to 81 °C

O=C1/C(=C/c2ccc(Br)cn2)Oc2ccccc21 [Aurone 3011, (Z)-2-((5-bromopyridin-2-yl)methylene)benzofuran-3(2H)-one]
IC50 ([1]; Table 2): > 50 µM | IC50 ([1]; Trypanosoma brucei, Table 1): > 50 µM | IC50 [2, 5]: > 100 µM | IC50 ([2]; Rattus norvegicus, Table 3B, weighted means of two or more independent trials, read-out: IC50 L6): > 100 µM | IC50 [2, 12]: > 100 µM | IC50 ([3]; read-out: IC50 L. amaz.): 2.61 µM | Selectivity L6/La ([3]; Table 1): >38.31 | Selectivity L6/La [3, 7]: >38.31 | Selectivity L6/Tc [4, 13]: >3.04 | Selectivity L6/Tc [4, 14]: >3.04 | Selectivity L6/Tc-I ([4]; Table 3B, estimated from highest L6 dose tested where no L6 IC50): >3.04 | IC50 [4, 9]: 32.9 µM | IC50 [4, 10]: 32.9 µM | IC50 ([4]; read-out: IC50 TC-I, Table 3B, weighted means of two or more independent trials): 32.9 µM | melting point: 192 to 193 °C

COc1cccc(/C=C2\Oc3ccc(C)cc3C2=O)c1O [Aurone 4003, (Z)-2-(2-hydroxy-3-methoxybenzylidene)-5-methylbenzofuran-3(2H)-one]
Selectivity L6/Tb ([1]; Table 1): >3.61 | IC50 ([1]; Trypanosoma brucei, Table 1): 27.7 µM | IC50 [2, 5]: > 100 µM | IC50 ([3]; read-out: IC50 L. amaz.): 13.4 µM | Selectivity L6/La ([3]; Table 1): >7.45 | IC50 [4, 9]: > 50 µM | melting point: 134 to 137 °C

COc1ccc2c(c1)O/C(=C\c1cccs1)C2=O [Aurone 5001, (Z)-6-methoxy-2-(thiophen-2-ylmethylene)benzofuran-3(2H)-one]
IC50 ([1]; Trypanosoma brucei, Table 1): > 50 µM | IC50 [2, 5]: > 100 µM | IC50 ([3]; read-out: IC50 L. amaz.): 21.1 µM | Selectivity L6/La ([3]; Table 1): >4.73 | IC50 [4, 9]: > 50 µM | melting point: 99 to 103 °C

COc1ccc2c(c1)O/C(=C\c1ccc(C)cc1)C2=O [Aurone 5002, (Z)-6-methoxy-2-(4-methylbenzylidene)benzofuran-3(2H)-one]
IC50 ([1]; Trypanosoma brucei, Table 1): 40.7 µM | IC50 [2, 5]: 183 µM | IC50 ([3]; read-out: IC50 L. amaz.): 10.5 µM | IC50 [4, 9]: > 50 µM | IC50 [4, 10]: > 50 µM | melting point: 115 to 122 °C

COc1ccc2c(c1)O/C(=C\c1ccc(Br)cc1)C2=O [Aurone 5005, (Z)-2-(4-bromobenzylidene)-6-methoxybenzofuran-3(2H)-one]
IC50 ([1]; Trypanosoma brucei, Table 1): 47.2 µM | IC50 [2, 5]: 181 µM | IC50 ([3]; read-out: IC50 L. amaz.): 14.3 µM | IC50 [4, 9]: > 50 µM | IC50 [4, 10]: > 50 µM | melting point: 153 °C

COc1ccc2c(c1)O/C(=C\c1ccc(C#N)cc1)C2=O [Aurone 5006, (Z)-4-((6-methoxy-3-oxobenzofuran-2(3H)-ylidene)methyl)benzonitrile]
IC50 ([1]; Trypanosoma brucei, Table 1): 30.3 µM | IC50 [2, 5]: 213 µM | IC50 ([3]; read-out: IC50 L. amaz.): 4.79 µM | IC50 [4, 9]: > 50 µM | IC50 [4, 10]: > 50 µM | melting point: 180 to 181 °C

Cc1ccc(/C=C2\Oc3ccc(Br)cc3C2=O)cc1 [Aurone 6000, (Z)-5-bromo-2-(4-methylbenzylidene)benzofuran-3(2H)-one]
IC50 ([1]; Trypanosoma brucei, Table 1): > 50 µM | IC50 [2, 5]: > 100 µM | IC50 ([3]; read-out: IC50 L. amaz.): 8.43 µM | IC50 [4, 9]: > 50 µM | IC50 [4, 10]: > 50 µM | melting point: 115 to 120 °C

CCc1ccc(/C=C2\Oc3ccccc3C2=O)cc1 [Aurone 8001, (Z)-2-(4-ethylbenzylidene)benzofuran-3(2H)-one]
IC50 ([1]; Trypanosoma brucei, Table 1): 46.5 µM | IC50 [2, 5]: > 100 µM | IC50 ([3]; read-out: IC50 L. amaz.): 6.42 µM | IC50 [3, 15]: 6.42 µM | IC50 [4, 9]: 11.4 µM | IC50 [4, 10]: 11.4 µM | melting point: 71 to 74 °C

O=C1/C(=C/c2ccccc2F)Oc2ccccc21 [Aurone 9004, (Z)-2-(2-fluorobenzylidene)benzofuran-3(2H)-one]
IC50 ([1]; Table 2): > 50 µM | IC50 ([1]; Trypanosoma brucei, Table 1): > 50 µM | IC50 [2, 5]: 176 µM | IC50 [2, 6]: 176 µM | IC50 ([3]; read-out: IC50 L. amaz.): 10.5 µM | IC50 [3, 15]: 10.5 µM | Selectivity L6/La ([3]; Table 1): 16.83 | Selectivity L6/La [3, 7]: 16.83 | Selectivity L6/Tc [4, 13]: 8.00 | Selectivity L6/Tc [4, 14]: 8.00 | Selectivity L6/TC-I [4, 8]: 8.00 | IC50 [4, 9]: 22 µM | IC50 [4, 10]: 22 µM | IC50 [4, 11]: 22 µM | melting point: 76 to 81 °C

O=C1/C(=C/c2ccccc2Br)Oc2ccccc21 [Aurone 9006, (Z)-2-(2-bromobenzylidene)benzofuran-3(2H)-one]
Selectivity L6/Tb ([1]; Table 1): 7.98 | Selectivity L6/Tb [1, 16]: 7.98 | Selectivity L6/Tb [1, 17]: 7.98 | IC50 ([1]; Trypanosoma brucei, Table 1): 28.3 µM | IC50 [2, 5]: 226 µM | IC50 [2, 6]: 226 µM | IC50 ([3]; read-out: IC50 L. amaz.): < 1 µM | IC50 [3, 15]: < 1 µM | Selectivity L6/La ([3]; Table 1): >226.08 | Selectivity L6/La [3, 7]: >226.08 | Selectivity L6/Tc [4, 13]: 10.61 | Selectivity L6/Tc [4, 14]: 10.61 | Selectivity L6/TC-I [4, 8]: 10.61 | IC50 [4, 9]: 21.3 µM | IC50 [4, 10]: 21.3 µM | IC50 [4, 11]: 21.3 µM | melting point: 134 to 140 °C

O=C1/C(=C/c2ccccc2Cl)Oc2ccccc21 [Aurone 9007, (Z)-2-(2-chlorobenzylidene)benzofuran-3(2H)-one]
Selectivity L6/Tb ([1]; Table 1): 21.02 | Selectivity L6/Tb [1, 16]: 21.02 | Selectivity L6/Tb [1, 17]: 21.02 | IC50 ([1]; Trypanosoma brucei, Table 1): 11.3 µM | IC50 [2, 5]: 238 µM | IC50 [2, 6]: 238 µM | IC50 ([3]; read-out: IC50 L. amaz.): 17.5 µM | IC50 [3, 15]: 17.5 µM | Selectivity L6/La ([3]; Table 1): 13.55 | Selectivity L6/La [3, 7]: 13.55 | Selectivity L6/Tc [4, 13]: 18.72 | Selectivity L6/Tc [4, 14]: 18.72 | Selectivity L6/TC-I [4, 8]: 18.72 | IC50 [4, 9]: 12.7 µM | IC50 [4, 10]: 12.7 µM | IC50 [4, 11]: 12.7 µM | melting point: 118 to 126 °C

O=C1/C(=C/c2cccc(F)c2)Oc2ccccc21 [Aurone 9024, (Z)-2-(3-fluorobenzylidene)benzofuran-3(2H)-one]
IC50 ([1]; Table 2): > 50 µM | IC50 ([1]; Trypanosoma brucei, Table 1): > 50 µM | IC50 [2, 5]: > 100 µM | IC50 [2, 6]: > 100 µM | IC50 [2, 12]: > 100 µM | IC50 ([3]; read-out: IC50 L. amaz.): 20.1 µM | Selectivity L6/La ([3]; Table 1): >4.98 | Selectivity L6/La [3, 7]: >4.98 | Selectivity L6/TC-I [4, 8]: 14.99 | IC50 [4, 9]: 6.67 µM | IC50 [4, 10]: 6.67 µM | IC50 [4, 11]: 6.67 µM | melting point: 111 to 113 °C

O=C1/C(=C/c2cccc(Cl)c2)Oc2ccccc21 [Aurone 9026, (Z)-2-(3-chlorobenzylidene)benzofuran-3(2H)-one]
Selectivity L6/Tb ([1]; Table 1): 2.83 | Selectivity L6/Tb [1, 17]: 2.83 | IC50 ([1]; Trypanosoma brucei, Table 1): 27.4 µM | IC50 [2, 5]: 77.5 µM | IC50 [2, 6]: 77.5 µM | IC50 ([3]; read-out: IC50 L. amaz.): 12.6 µM | Selectivity L6/La ([3]; Table 1): 6.15 | Selectivity L6/Tc [4, 13]: 7.07 | Selectivity L6/TC-I [4, 8]: 7.07 | IC50 [4, 9]: 11 µM | IC50 [4, 11]: 11 µM | melting point: 86 to 89 °C

O=C1/C(=C/c2cccc(I)c2)Oc2ccccc21 [Aurone 9028, (Z)-2-(3-iodobenzylidene)benzofuran-3(2H)-one]
IC50 ([1]; Table 2): > 50 µM | IC50 ([1]; Trypanosoma brucei, Table 1): > 50 µM | IC50 [2, 5]: > 100 µM | IC50 [2, 6]: > 100 µM | IC50 [2, 12]: > 100 µM | IC50 ([3]; read-out: IC50 L. amaz.): 2.61 µM | Selectivity L6/La ([3]; Table 1): >38.31 | Selectivity L6/La [3, 7]: >38.31 | Selectivity L6/Tc [4, 13]: >13.26 | Selectivity L6/Tc [4, 14]: >13.26 | Selectivity L6/TC-I [4, 8]: >13.26 | IC50 [4, 9]: 7.54 µM | IC50 [4, 10]: 7.54 µM | IC50 [4, 11]: 7.54 µM | melting point: 99 to 105 °C
